Source: US8092800B2 (priority 2005, dated 2012)
Marks after values point to notes of the source that are not given here. Square brackets hold non-standard residues; d marks the D form. Peptide text beside a SMILES is read from it. * marks the point of attachment. Sta = CC(C)C[C@H](N)[C@@H](O)CC(=O)O; Isovaleryl = CC(C)CC(=O)*

Tests used:
C. albicans = experiment: Systemic C. albicans infection in Balb/c mice, PEGylated dAbs; assay type: in vivo, Candida albicans; settings: 1 mg/kg at 2 h, 6 h and 24 h post infection
Description: Briefly, mice were chronically infected with C. albicans by injecting 1×10^6 cells per mouse via the lateral tail vein (in 0.2 ml saline). Anti-SAP2 or anti-MP65 dAbs were administered as previously indicated. Survival rates compared with control animals were measured.
PEGylated versions of both monomer and dimer constructs were assayed for efficacy in controlling a systemic C. albicans infection in Balb/c mice, using a protocol similar to the murine systemic model described above. One mg/kg of PEGylated dAb protein or fluconazole was administered at 2 h, 6 h and 24 h post infection to groups of 8 mice.

[1] = tested on: Candida albicans strain SA40; settings: cited from earlier work
SAP2 = SAP2 (Candida albicans, UniProt P0DJ06)
Description: This was based on bovine serum albumin degradation by a native, highly purified SAP2 preparation, essentially as described by Ross et al. Briefly, each assay contained 0.6 ml of 1% (w/v) BSA (Sigma Chem. Co., Detroit, Mich.) in 50 mM sodium citrate pH 3.2 and 0.15 enzyme solution (100 μg/ml). After 30 min at 37° C. 0.4 ml 10% (w/v) trichloroacetic acid was added. The tubes were stored in ice for 30 min and then centrifuged (1600×g) for 10 min. The absorbance of supernatant was read at 280 nm. The control was 1% BSA in enzyme-free citrate buffer. One unit of enzyme catalysed a delta OD of 1 per minute.

[2] = tested on: Candida albicans strain SA40; experiment: Rat vaginal candidiasis model, strain SA40; assay type: in vivo; settings: rats, pre-treated 30 min before intravaginal challenge with SA40
Description: The selected dAbs as described above were assayed for their capacity to accelerate fungus clearance from the rat vaginal cavity challenged by a virulent vaginopathic Candida strain. The controls were the use of an irrelevant dAb, and an anti-enolase antibody as negative ones and the antimycotic fluconazole and pepstatin A (the prototypal Sap inhibitor) as positive ones.

Candida albicans = experiment: Adherence of Candida to plastic; assay type: cell-based; settings: anti-MP65 dAbs
Description: The fungal cells were grown at 28° C. on YPD agar slants (2.0% wt/vol glucose, 1.0% wt/vol yeast extract, 2.0 wt/vol Bacto peptone, (Difco, Detroit, Mich.). Single suspensions of each organism were prepared by a modification of the procedure of Rotronsen (Rotronsen, D., et al. 1986. Rev Infect Dis.; 8:73-85). Briefly, cells were grown 24 h at 28° C. on a rotating drum in YBD broth pH5.0 (0.2% wt/vol yeast extract, 2.0% wt/vol […] and 2.0% wt/vol dextrose, (Difco, Detroit, Mich.). After harvesting by centrifugation, the C. albicans cells were washed three times in physiological solution (0.85% NaCl). Blastospores were counted with Thoma camera and adjusted to desired concentration (10^8 cells/ml) in Hank's Balanced Salt Solution with calcium and magnesium (Hyclone, Logan, Utah).
For adherence to the plastic, the fungal cells, grown as above, were washed twice with water and suspended at 1.5×10^3 cells/ml in modified Lee's or M199 liquid media. 1.5×10^3 cells were incubated for 3 hrs at 37° C. in 6-well polystyrene plates (Corning Incorporated, Corning, N.Y.,). After extensive washing, 1 ml of Sabouraud dextrose agar was poured in each well and allowed to solidify. After incubation at 37° C. for 24 hrs, colonies were counted and the results expressed as percentage of the inoculum. […]

Chain of SAP2 (P0DJ06 57-398): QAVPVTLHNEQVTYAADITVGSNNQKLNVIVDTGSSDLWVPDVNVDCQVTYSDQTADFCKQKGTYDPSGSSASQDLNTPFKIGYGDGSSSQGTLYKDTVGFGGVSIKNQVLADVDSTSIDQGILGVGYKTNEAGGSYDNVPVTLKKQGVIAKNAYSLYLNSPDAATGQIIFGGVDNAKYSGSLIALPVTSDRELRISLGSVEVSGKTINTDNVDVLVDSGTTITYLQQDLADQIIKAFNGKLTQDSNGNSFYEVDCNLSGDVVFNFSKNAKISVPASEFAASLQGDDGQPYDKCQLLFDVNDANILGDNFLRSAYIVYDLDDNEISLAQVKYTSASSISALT

## OC(Cn1cncn1)(Cn1cncn1)c1ccc(F)cc1F [Fluconazole, fluconazole]
C. albicans
  Mean Survival Time: >30 days
  Survival: 88%
[1]
  susceptibility of strain: fully susceptible

## CC(C)CC(=O)N[C@H](C(=O)N[C@H](C(=O)N[C@@H](CC(C)C)[C@@H](O)CC(=O)N[C@@H](C)C(=O)N[C@@H](CC(C)C)[C@@H](O)CC(=O)O)C(C)C)C(C)C [pepstatin, pepstatin A] (Isovaleryl-VV[Sta]A[Sta]-OH)
SAP2; citrate buffer + 1% BSA + SAP, acidic conditions, no-inhibitor control 1.0
  ΔOD/ml/min (BSA degradation by SAP): 0.36 ΔOD/ml/min
SAP2; inhibition of BSA degradation by SAP2, compared with pepstatin (100*)
  % Inhibition: 100* %

B1: ADR4-13: Sap2 binding dAb, SEQ ID No 25 (protein, listed as Homo sapiens)
VHH: EVQLLESGGGLVQPGGSLRLSCAASGFSISYKNMAWVRQAPGKGLEWVSAIKAANGSTYYADSVKGRFTISRDNSKNTLYLQMNSLRAEDTAVYYCATGSQKKRTYTFDFWGQGTLVTVSS
modifications: Sap2-binding dAb
[2]
  day of healing/resolution of infection (<1 CFU/μl of vaginal fluid), preventative: 21 days

B2: ADR4-6: Sap2 binding dAb, SEQ ID No 18 (protein, listed as Homo sapiens)
VHH: EVQLLESGGGLVQPGGSLRLSCAASGFRVSNYDLTWVRQAPGKGLEWVSTISATNGSTYYADSVKGRFTISRDNSKNTLYLQMNSLRAEDTAVYYCAAVTWWLLRHNDNLGFWGQGTLVTVSS
modifications: Sap2-binding dAb
[2]
  day of healing/resolution of infection (<1 CFU/μl of vaginal fluid), preventative: 21 days

B3: ADR3-1: MP65 binding dAb, SEQ ID No 5 (antibody, listed as Homo sapiens, V domains shown)
VH: EVQLLESGGGLVQPGGSLRLSCAASGFTFPDYSMTWVRQAPGKGLEWVSLISNSGKTTMYADSVKGRFTISRDNSKNTLYLQMNSLRAEDTAVYYCAKWVNRILQEFDYWGQGTLVTVSS
modifications: MP65-binding dAb
Candida albicans
  capacity to inhibit adherence to plastic: capacity to inhibit adherence to plastic
